Assays:
Type in all cases: biochemical
[1] = target: T1, full length recombinant Pim-1 protein (Homo sapiens, UniProt P11309); experiment: Pim-1 enzyme assay (HTRF, phosphorylation of biotinylated-BAD (S112) peptide); conditions: enzyme assay, Pim-1; read-out: Pim_1_IC50
T1 construct: by full length recombinant Pim-1, Pim-2, or Pim-3 protein; hexahistidine tag followed by a thrombin cleavage site (N); made in house; host or cells: Sf9 (baculovirus) or E. coli (pET28)
Procedure, shortened: (§1)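 HTRF readout (europium anti-pBAD S112 antibody, streptavidin-APC) of biotin-BAD peptide phosphorylation by recombinant full-length Pim-1 or Pim-2, buffer 60 mM Hepes pH 7.0, 2 mM DTT, 0.05% BSA. Enzymes were His6-tagged, from baculovirus/Sf9 or E. coli.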

[2] = target: T2, full length recombinant Pim-2 protein (Homo sapiens, UniProt Q9P1W9); experiment: Pim-2 enzyme assay (HTRF, phosphorylation of biotinylated-BAD (S112) peptide); conditions: enzyme assay, Pim-2; read-out: Pim2_IC50
T2 construct: by full length recombinant Pim-1, Pim-2, or Pim-3 protein; hexahistidine tag followed by a thrombin cleavage site (N); made in house; host or cells: Sf9 (baculovirus) or E. coli (pET28)
Procedure, shortened: as §1

[3] = target: T3, full length recombinant Pim-3 protein (Homo sapiens, UniProt Q86V86); experiment: Pim-3 enzyme assay (HTRF, phosphorylation of biotinylated-BAD (S112) peptide); conditions: read-out: Pim3 IC50
T3 construct: by full length recombinant Pim-1, Pim-2, or Pim-3 protein; purchased Millipore (UK)
Excerpt: Pim-3 was purchased from Millipore (UK).
The phosphorylation of biotinylated-BAD (S112) peptide by full length recombinant Pim-1, Pim-2, or Pim-3 protein was detected with streptavidin:Allophycocyanin (APC) conjugate and a europium (Eu) labeled antibody directed against phosphorylated-BAD (S112). […] The fluorescence is directly proportional to the amount of phosphorylated BAD peptide present in the reaction.
A reference compound was included on each assay plate in order to validate that plate; on one plate of every assay run, two additional reference compounds were included.
The final buffer conditions were as follows: 60 mM Hepes, pH 7.0, 0.05% BSA, 2 mM DTT. […] The reaction was stopped by the addition of 3 mM EDTA, and fluorescence was measured by an HTRF® Rubystar microplate reader. For each plate, percent of control (POC) values were calculated for each well. Values for the IC50 IP were estimated using a standard 4-parameter logistic model.

T2 sequence (Q9P1W9 whole entry): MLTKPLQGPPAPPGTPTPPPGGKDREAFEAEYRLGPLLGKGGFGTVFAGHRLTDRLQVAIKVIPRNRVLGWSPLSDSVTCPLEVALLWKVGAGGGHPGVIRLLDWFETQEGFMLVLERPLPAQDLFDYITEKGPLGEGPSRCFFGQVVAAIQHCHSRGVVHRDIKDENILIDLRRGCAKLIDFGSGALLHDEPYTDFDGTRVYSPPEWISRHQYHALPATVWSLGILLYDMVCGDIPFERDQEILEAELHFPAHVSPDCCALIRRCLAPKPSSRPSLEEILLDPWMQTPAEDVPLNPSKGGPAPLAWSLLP
T1 sequence (P11309 whole entry): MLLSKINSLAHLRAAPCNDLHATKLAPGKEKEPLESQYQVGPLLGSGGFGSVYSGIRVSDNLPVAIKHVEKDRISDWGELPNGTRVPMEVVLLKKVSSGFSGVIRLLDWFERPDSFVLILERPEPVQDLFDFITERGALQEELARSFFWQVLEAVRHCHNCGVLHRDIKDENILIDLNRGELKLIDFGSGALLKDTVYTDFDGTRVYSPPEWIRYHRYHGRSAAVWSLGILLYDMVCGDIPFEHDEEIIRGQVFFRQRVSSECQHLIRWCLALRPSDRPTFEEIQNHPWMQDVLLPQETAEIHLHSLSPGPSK

Structure (SMILES) | IC50 [1] | IC50 [2] | IC50 [3]
FC(F)(F)Oc1cccc(-c2ccc3[nH]nc(-c4cncc(O[C@@H]5CCCNC5)n4)c3c2)c1 [Example 150, 3-(6-((3R)-3-piperidinyloxy)-2-pyrazinyl)-5-(3-(trifluoromethoxy)phenyl)-1H-indazole] | 35 nM | 214 nM | 29 nM
c1cc2[nH]nc(-c3cncc(O[C@@H]4CCCNC4)n3)c2cc1C1CCOCC1 [Example 151, 3-(6-((3R)-3-piperidinyloxy)-2-pyrazinyl)-5-(tetrahydro-2H-pyran-4-yl)-1H-indazole] | 27 nM | 118 nM | 129 nM
Fc1cccc(F)c1-c1ccc2[nH]nc(-c3cncc(N4CCCC4)n3)c2c1 [Example 170, 5-(2,6-difluorophenyl)-3-(6-(1-pyrrolidinyl)-2-pyrazinyl)-1H-indazole] | 153 nM | > 3000 nM | 187 nM
CNc1nccc(-c2n[nH]c3ccc(-c4c(F)cccc4F)cc23)n1 [Example 192, 4-(5-(2,6-difluorophenyl)-1H-indazol-3-yl)-N-methyl-2-pyrimidinamine] | 147 nM | 1250 nM | 175 nM
C[C@@H]1CCNC[C@H]1Oc1cncc(-c2n[nH]c3ccc(-c4c(F)cccc4F)cc23)n1 [Example 197, 5-(2,6-difluorophenyl)-3-(6-(((3S,4R)-4-methyl-3-piperidinyl)oxy)-2-pyrazinyl)-1H-indazole] | 37 nM | 187 nM | 18 nM
Fc1cccc(F)c1-c1ccc2[nH]cc(-c3nccc(NC4CCNCC4)n3)c2c1 [Example 210, 2-(5-(2,6-difluorophenyl)-1H-indol-3-yl)-N-4-piperidinyl-4-pyrimidinamine] | 120 nM | 424 nM | 91 nM
Fc1cccc(F)c1-c1ccc2[nH]cc(-c3cncc(O[C@H]4CCCNC4)n3)c2c1 [Example 214, 5-(2,6-difluorophenyl)-3-(6-((3S)-3-piperidinyloxy)-2-pyrazinyl)-1H-indole] | 45 nM | 515 nM | 83 nM
Cc1ccc(-c2c[nH]c3ccc(-c4cncc(OC(C)C)n4)cc23)nc1 [Example 219, 5-(6-(1-methylethoxy)-2-pyrazinyl)-3-(5-methyl-2-pyridinyl)-1H-indole] | 1130 nM | > 3000 nM | 692 nM
COc1cnc(-c2c[nH]c3ccc(-c4cncc(OC(C)C)n4)cc23)cn1 [Example 222, 3-(5-methoxy-2-pyrazinyl)-5-(6-(1-methylethoxy)-2-pyrazinyl)-1H-indole] | 732 nM | > 3000 nM | 445 nM
COc1cncc(-c2c[nH]c3ccc(-c4cncc(OC(C)C)n4)cc23)n1 [Example 224, 3-(6-methoxy-2-pyrazinyl)-5-(6-(1-methylethoxy)-2-pyrazinyl)-1H-indole] | 216 nM | 2270 nM | 126 nM
CC(C)Oc1cncc(-c2ccc3[nH]cc(-c4cccc(OC(C)C)n4)c3c2)n1 [Example 226, 5-(6-(1-methylethoxy)-2-pyrazinyl)-3-(6-(1-methylethoxy)-2-pyridinyl)-1H-indole] | 2200 nM | > 3000 nM | 616 nM
CC(C)Oc1cncc(-c2ccc3[nH]cc(-c4cccc(N5CCCC5=O)n4)c3c2)n1 [Example 229, 1-(6-(5-(6-(1-methylethoxy)-2-pyrazinyl)-1H-indol-3-yl)-2-pyridinyl)-2-pyrrolidinone] | 251 nM | > 3000 nM | 147 nM
Nc1ccc2[nH]cc(-c3cncc(N4CCC(N)CC4)n3)c2c1 [Example 233, 3-(6-(4-aminopiperidin-1-yl)pyrazin-2-yl)-1H-indol-5-amine] | 845 nM | > 3000 nM | 1760 nM
NC1CCN(c2cncc(-c3c[nH]c4ccc(NC(=O)c5ccccc5)cc34)n2)CC1 [Example 235, N-(3-(6-(4-aminopiperidin-1-yl)pyrazin-2-yl)-1H-indol-5-yl)benzamide] | 121 nM | 1870 nM | 151 nM
NC1CCN(c2cncc(-c3c[nH]c4ccc(C(=O)O)cc34)n2)CC1 [Example 237, 3-(6-(4-aminopiperidin-1-yl)pyrazin-2-yl)-1H-indole-5-carboxylic acid] | 195 nM | 325 nM | 122 nM

Results, then the compound that gave them:

IC50 [1] | IC50 [2] | IC50 [3] | Structure (SMILES)
27 nM | 252 nM | 26 nM | CC(C)Oc1cccc(-c2ccc3[nH]nc(-c4cncc(O[C@@H]5CCCNC5)n4)c3c2)n1 [Example 144, 5-(6-(1-methylethoxy)-2-pyridinyl)-3-(6-((3R)-3-piperidinyloxy)-2-pyrazinyl)-1H-indazole]
23 nM | 496 nM | 80 nM | c1cc2[nH]nc(-c3cncc(O[C@@H]4CCCNC4)n3)c2cc1-c1ccc2nncn2c1 [Example 145, 6-(3-(6-((3R)-3-piperidinyloxy)-2-pyrazinyl)-1H-indazol-5-yl)[1,2,4]triazolo[4,3-a]pyridine]
36 nM | 108 nM | 27 nM | Oc1nccc(-c2ccc3[nH]nc(-c4cncc(O[C@@H]5CCCNC5)n4)c3c2)n1 [Example 155, 4-(3-(6-((3R)-3-piperidinyloxy)-2-pyrazinyl)-1H-indazol-5-yl)-2-pyrimidinol]
49 nM | 144 nM | 66 nM | c1cc2[nH]nc(-c3cncc(O[C@@H]4CCCNC4)n3)c2cc1C1CCCOC1 (stereo partly drawn) [Example 156, 3-(6-((3R)-3-piperidinyloxy)-2-pyrazinyl)-5-(tetrahydro-2H-pyran-3-yl)-1H-indazole]
168 nM | 1180 nM | 153 nM | O[C@H]1CCN(c2cncc(-c3n[nH]c4ccc(-c5c(F)cccc5F)cc34)n2)C1 [Example 175, (3S)-1-(6-(5-(2,6-difluorophenyl)-1H-indazol-3-yl)-2-pyrazinyl)-3-pyrrolidinol]
168 nM | 858 nM | 122 nM | CNc1cncc(-c2n[nH]c3ccc(-c4c(F)cccc4F)cc23)n1 [Example 179, 6-(5-(2,6-difluorophenyl)-1H-indazol-3-yl)-N-methyl-2-pyrazinamine]
206 nM | 2080 nM | 146 nM | CN(C)c1cncc(-c2n[nH]c3ccc(-c4c(F)cccc4F)cc23)n1 [Example 181, 6-(5-(2,6-difluorophenyl)-1H-indazol-3-yl)-N,N-dimethyl-2-pyrazinamine]
161 nM | 1340 nM | 143 nM | CC(C)Nc1nccc(-c2n[nH]c3ccc(-c4c(F)cccc4F)cc23)n1 [Example 193, 4-(5-(2,6-difluorophenyl)-1H-indazol-3-yl)-N-(1-methylethyl)-2-pyrimidinamine]
1640 nM | > 3000 nM | 538 nM | CC(C)Oc1cncc(-c2ccc3[nH]cc(-c4ccc(F)cn4)c3c2)n1 [Example 215, 3-(5-fluoro-2-pyridinyl)-5-(6-(1-methylethoxy)-2-pyrazinyl)-1H-indole]
601 nM | 2150 nM | 245 nM | Cc1ccnc(-c2c[nH]c3ccc(-c4cncc(OC(C)C)n4)cc23)c1 [Example 216, 5-(6-(1-methylethoxy)-2-pyrazinyl)-3-(4-methyl-2-pyridinyl)-1H-indole]
765 nM | 2350 nM | 156 nM | CC(C)Oc1cncc(-c2ccc3[nH]cc(-c4cccc(N)n4)c3c2)n1 [Example 217, 6-(5-(6-(1-methylethoxy)-2-pyrazinyl)-1H-indol-3-yl)-2-pyridinamine]
805 nM | > 3000 nM | 317 nM | CC(C)Oc1cncc(-c2ccc3[nH]cc(-c4cc(N)ccn4)c3c2)n1 [Example 218, 2-(5-(6-(1-methylethoxy)-2-pyrazinyl)-1H-indol-3-yl)-4-pyridinamine]
494 nM | > 3000 nM | 329 nM | CC(C)Oc1cncc(-c2ccc3[nH]cc(-c4cccc(N5CCOCC5)n4)c3c2)n1 [Example 220, 5-(6-(1-methylethoxy)-2-pyrazinyl)-3-(6-(4-morpholinyl)-2-pyridinyl)-1H-indole]
142 nM | > 3000 nM | 150 nM | CC(C)Oc1cncc(-c2ccc3[nH]cc(-c4cccc(-n5cccn5)n4)c3c2)n1 [Example 223, 5-(6-(1-methylethoxy)-2-pyrazinyl)-3-(6-(1H-pyrazol-1-yl)-2-pyridinyl)-1H-indole]
161 nM | 2570 nM | 348 nM | CCC(=O)Nc1ccc2[nH]cc(-c3cncc(N4CCC(N)CC4)n3)c2c1 [Example 234, N-(3-(6-(4-aminopiperidin-1-yl)pyrazin-2-yl)-1H-indol-5-yl)propionamide]
107 nM | 755 nM | 311 nM | NC(=O)c1ccc2[nH]cc(-c3cncc(N4CCC(N)CC4)n3)c2c1 [Example 238, 3-(6-(4-aminopiperidin-1-yl)pyrazin-2-yl)-1H-indole-5-carboxamide]
